Data taken from patent US20230226138A1, “COMPOSITIONS AND METHODS FOR TREATING INFECTIONS AND NETOPATHY” (Black Cat Bio Limited, priority 2020, published 2023).
Read-outs that look alike come from different tables or passages of the source.

What was measured:
Src kinase = Src kinase (Homo sapiens, UniProt P12931); conditions: cited from earlier work
P38MAP kinase = conditions: cited from earlier work
[1] = animal disease models; cited from earlier work
[2] = system: NETosis in Neutrophils (H3R8 citrullinated nucleosomes); assay: NETosis quantified by release of H3R8 citrullinated nucleosomes from stimulated neutrophils; type: cell-based, human; conditions: for citrullinated nucleosomes: 4 hours
ACE2 = conditions: 6 hrs
Method: (§1) LNCaP (prostate) and A549 (Androgen receptor positive, human alveolar carcinoma-derived cell line with type II pneumonocyte properties) cells were seeded in 12-well plates (2×10^5 cells per well) in phenol red free RPMI-1640 and DMEM media (Lonza), supplemented with 5% and 2% double charcoal stripped FCS (First Link UK) respectively, and 2 mM I-glutamine, 100 units/ml penicillin and […] streptomycin (Sigma). Charcoal stripping was required to remove residual traces of hormones (Sedelaar et al, (2009)). Cells were treated with 0-100 nM dihydrotestosterone (DHT, Sigma) for 6 hrs. RNA was extracted using TRIzol (Thermo Fisher Scientific) and reverse transcribed (LunaScript RT Supermix Kit, NEB). TMPRSS2 and ACE2 expression was quantified using qPCR (LightCycler 96, Roche) and the data normalized to an internal control (L19).

TMPRSS2 [3] = conditions: 6 hrs; for relative expression of TMPRSS2: LNCaP
Method: as §1

TMPRSS2 [4] = type: cell-based, human; conditions: for TMPRSS2 protein expression: relative to non-DHT stimulated control
Method: (§2) LNCaP and A549 cells were seeded at a density of 1×10^6 in 6-well plates and incubated for 72 hours in phenol red free RPM1-1640 and DMEM media (Lonza), supplemented with 5% and 2% double charcoal stripped FCS (First Link UK) respectively, and 2 mM I-glutamine, 100 units/ml penicillin and […] streptomycin (Sigma). Cells were treated with 100 ng/ml Epithelial Growth Factor (EGF, Sigma) or 1 nM DHT (dihydrotestosterone, Sigma) ±SA Inhibitor for 72 hrs. Cells were harvested and proteins separated using SDS-PAGE. Blots were probed with antibodies specific for TMPRSS2 (ab92323, Abcam) and α-tubulin (B-5-1-2, Sigma). Protein levels were visualized using a chemiluminescence imaging system (Fusion FX, Vilber). Densitometry was performed using Image J and TMPRSS2 levels normalised to the internal control (Tubulin).

TMPRSS2 [5] = type: cell-based, human; conditions: for TMPRSS2 protein expression: relative to non-DHT stimulated control; remark: listed apart in the source
Method: as §2

Neutrophils (NETosis) [6] = type: cell-based, human
Method: Neutrophils, isolated as described in Example 4 (or by equivalent methodology as known in the art, for example, Ficoll Density gradient and dextran sedimentation followed by Red blood cell lysis with hypertonic solution) are resuspended in phenol red free RPMI 1640 media at a density of 2×10^6 cells per milliliter and incubated for five minutes in the dark at room temperature with NUCLEAR-ID Red (membrane impermeable) DNA dye to stain nuclei (1 ml/1.5 ml of cell suspension; Enzo Life Sciences). Cells are washed three times to remove free Dye by centrifuging at 2400 RFI for 5 min to pellet the cells and replacing supernatant with 1 ml fresh phenol red free RPMI 1640 media. […]
Neutrophils are imaged within 10 min of plating using phase contrast, red (800-ms exposure), and green (400-ms exposure) channels in an IncuCyte ZOOM platform, housed inside an incubator at 37° C. with 5% CO2. […] The Number of neutrophils is then calculated as the average red count for the three images per well and the Number of green cells calculated as the average green count. The percentage of neutrophils undergoing NETosis is calculated as the average green count divide by the average red count at each time point measured.

TMPRSS2 [7] = assay: TMPRSS2 protein levels in A549 in full media (SDS-PAGE blot, densitometry); type: cell-based, human; conditions: A549, full media (10% FCS), 72 hrs
Method: A549 were seeded in 6-well plates at a density of 1×10^6 per well. Cells were incubated in DMEM media (Lonza), supplemented with 10% FCS (HyClone) and 2 mM !-glutamine, 100 units/ml penicillin and 100 mg/ml streptomycin (Sigma). […] Cells were treated with 0-1 μM SA Inhibitor (SEQ ID NO: 2) or 10 μM Enzalutamide (ENZA, Sigma) for 72 hrs. Cells were harvested and proteins separated using SDS-PAGE. Blots were probed with antibodies specific for TMPRSS2 (ab92323, Abcam) and α-tubulin (B-5-1-2, Sigma). Protein levels were visualized using a chemiluminescence imaging system (Fusion FX, Vilber). Densitometry was performed using Image J and TMPRSS2 levels normalized to the internal control (Tubulin).

Neutrophils (NETosis) [8] = assay: Live cell imaging of IL6 triggered NETosis (Example 6); type: cell-based, human
Method: In a similar experiment to that described in Example 5, IL6 (Merck, Product Number H7416-10UG) is used to activate NETosis in response to LPS using a similar checkerboard configuration as shown in Table 4 (working IL6 concentrations 0, 10, 50 and 100 ng/mL).

Neutrophils (NETosis) [9] = assay: Live cell imaging of IL8 triggered NETosis (Example 7); type: cell-based, human
Method: In a similar experiment to that described in Example 5, IL8 (Merck, Product Number 11645-10UG) is used to activate NETosis in response to LPS using a similar checkerboard configuration as shown in Table 4 (working IL6 concentrations 0, 1, 10 and 100 nM).

[10] = system: COVID-19 patient derived neutrophils (NETosis); assay: Live cell imaging of NETosis in COVID-19 patient derived neutrophils (Example 8); type: cell-based, human; conditions: neutrophils from a SARSCoV-2 patient in intensive care
[11] = system: Staphylococcus aureus infection; assay: Patient case, bacterial infection with septic shock (Example 10); type: in vivo, human; conditions: 4 mg/kg sub-cutaneous once daily, antibiotics also administered, after a few days
Method: A patient is seen in the Emergency Room. The patient is running a temperature of 102° F. with a heart rate exceeding 90 beats/minute and rapid breathing. Septic shock is confirmed based on the requirement for vasopresser administration to maintain a mean arterial pressure of 65 mmHg and serum lactate level over 2 mmol/L. The patient is noted to be suffering from impaired kidney function. […] A Staphylococcus aureus infection is confirmed, and antibiotics administered. […] The peptide is continued to be administered once daily to the patient until the patient is recovered.

[12] = Patient case, sterile inflammatory response following trauma (Example 11); type: in vivo, human; conditions: 4 mg/kg sub-cutaneous once daily, post traumatic sepsis, after a few days
Source text: The patient is admitted to an intensive care unit and placed in an induced coma. […] The patients' cultures fail to reveal a bacterial infection. After a few days of once daily administration of the peptide, markers of Systematic Inflammatory Response Syndrome (SIRS), including temperature, heart rate and breathing rate improve. The peptide is continued to be administered until SIRS markers have returned to normal.

SARS-COV-2 infection = assay: Patient case, standalone SA inhibitor to reduce viral load (Example 12); type: in vivo, human; conditions: 4 mg/kg once daily sub-cutaneous, after a few days
Source text: A patient is brought into the hospital suffering from respiratory flu like symptoms. A blood sample is taken from the patient, who is confirmed by PCR analysis of viral RNA to have a SARS-COV-2 infection. […] Administration of the peptide continues until the patient is confirmed to be virus free by PCR.

COVID-19 virus infection = assay: Patient case, standalone SA inhibitor, viral load and NETosis (Example 13); type: in vivo, human; conditions: 4 mg/kg once daily sub-cutaneous
[13] = Patient case, flare up of Chron's disease, dry powder inhaler (second Example 14); type: in vivo, human; conditions: one metered dose (1 mg/kg) each morning, after eight days
Method: […] […] The patient is advised to take one metered dose (1 mg/kg) each morning until symptoms abate.

[14] = system: NETosis in Neutrophils (H3.1 nucleosomes); assay: NETosis quantified by release of H3.1 nucleosomes from stimulated neutrophils; conditions: 4 hours
Method: The ability of SA Inhibitor to reduce NETosis in Neutrophils stimulated by lipopolysaccharide (LPS, Sigma Aldrich, Product Number L4391-1MG) alone or in combination with Epidermal growth factor (Sigma Aldrich, Product Number SRP3027-500UG) was compared to the efficacy of a Src kinase Inhibitor (PP2, Sigma Aldrich, Product Number P0042-5MG) and a PAD4 inhibitor (GSK484, Cambridge Bioscience UK, Product Number CAY17488-1 mg) which is known to down regulate NETosis by preventing citrullination of histone proteins. […]
Tube-2 was placed into the magnet and after 10 minutes incubation the clear fraction (enriched cell suspension) collected by single pipette and transferred into a fresh 50 ml conical falcon tube (Tube-3) which was placed back into the magnet for a final, third separation. The clear fraction, containing purified, isolated neutrophils was transferred into a fresh 50 ml conical falcon tube (Tube-4) and the neutrophil cell Number, % viability and yield determined by cell counting and Trypan blue exclusion. […]

Sequence of Src kinase (P12931 whole entry): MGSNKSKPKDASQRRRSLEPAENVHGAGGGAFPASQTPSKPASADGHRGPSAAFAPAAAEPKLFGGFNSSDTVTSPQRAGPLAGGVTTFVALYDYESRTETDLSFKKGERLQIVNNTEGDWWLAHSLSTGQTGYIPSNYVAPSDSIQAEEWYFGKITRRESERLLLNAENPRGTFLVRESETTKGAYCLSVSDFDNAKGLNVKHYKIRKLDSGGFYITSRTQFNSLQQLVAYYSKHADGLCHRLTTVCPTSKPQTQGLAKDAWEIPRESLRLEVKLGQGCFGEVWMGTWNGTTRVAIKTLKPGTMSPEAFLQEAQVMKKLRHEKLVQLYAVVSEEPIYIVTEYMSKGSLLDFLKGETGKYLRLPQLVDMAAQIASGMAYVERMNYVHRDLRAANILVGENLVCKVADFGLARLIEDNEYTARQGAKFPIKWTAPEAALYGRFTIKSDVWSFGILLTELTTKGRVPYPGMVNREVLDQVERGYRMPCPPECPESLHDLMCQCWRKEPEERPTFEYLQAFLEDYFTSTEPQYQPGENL

For `O=C(O)c1cccnc1` [Niacin], the Src kinase activity (Src kinase) is listed as “inhibited”, the P38MAP kinase activity (P38MAP kinase) is listed as “inhibited” and the “chemically induced lung fibrosis” value [1] is listed as “reduced”.
In the case of `COc1cc(C(=O)N2CC[C@@H](O)[C@@H](N)C2)cc2nc(-c3cc4ccccc4n3CC3CC3)n(C)c12` [PAD4i, reference compound], the “suppression of NETosis by citrullinated nucleosome marker” value ([2]; LPS or LPS and EGF (FIG. 4C, 4D), inhibitor 0.1-10 uM) is reported as “dose response reduction in citrullinated nucleosomes levels”.
For `C[C@]12CCC(=O)C[C@@H]1CC[C@@H]1[C@@H]2CC[C@]2(C)[C@@H](O)CC[C@@H]12` [dihydrotestosterone], the “relative expression of ACE2” value (ACE2; A549, 0-100 nM dihydrotestosterone) was “slight negative correlation with dihydrotestosterone concentration”, the “expression of ACE2, dose response to stimulation” value (ACE2; LNCaP, 0-100 nM dihydrotestosterone) was “TMPRSS2, but not ACE2, showed a dose response” and the TMPRSS2 expression increase (TMPRSS2 [3]; A549, 1 nM dihydrotestosterone, compared to cells grown in the absence of dihydrotestosterone) was “over 2 ×”. The “relative expression of TMPRSS2” value (TMPRSS2 [3]; 0.1 nM dihydrotestosterone, compared to cells grown in the absence of dihydrotestosterone) was “approximately 3 ×”, the “relative expression of TMPRSS2” value (TMPRSS2 [3]; 10 nM dihydrotestosterone, compared to the control) was 6 × and the TMPRSS2 relative expression (TMPRSS2 [4]) was 168%. For the same compound, the TMPRSS2 relative expression (TMPRSS2 [5]) was 120.9% and the “level of NETosis (percentage of neutrophils undergoing NETosis)” value (Neutrophils (NETosis) [6]) was “increased with increasing concentrations of dihydrotestosterone”.
With `CNC(=O)c1ccc(N2C(=S)N(c3ccc(C#N)c(C(F)(F)F)c3)C(=O)C2(C)C)cc1F` [enzalutamide, Enzalutamide, reference compound] the “expression of TMPRSS2 protein” value (TMPRSS2 [7]; 10 μM Enzalutamide) was “did not achieve down regulation”.
With “Ac-Pro-Pro-Pro-His-Pro-His-Ala-Arg-Ile-Lys-NH2 (Ac-PPPHPHARIK-NH2) [SA Inhibitor]” the “expression of TMPRSS2 protein” value (TMPRSS2 [7]; 0-1 μM SA Inhibitor) was “decreased expression up to 10 nM SA Inhibitor followed by a progressive increase up to 1 μM”, the “effect on EGF suppression of TMPRSS2 expression” value (TMPRSS2 [4]; EGF alone and with DHT, cell line not specified (LNCaP and A549 tested)) was “reversed this inhibitory effect” and the TMPRSS2 protein expression (TMPRSS2 [4]; LNCaP, SA Inhibitor in the absence of DHT stimulation, 72 hrs) was 58.7%. The TMPRSS2 protein expression (TMPRSS2 [4]; LNCaP, SA Inhibitor with DHT stimulation (1 nM), 72 hrs) was 60.4%, the TMPRSS2 protein expression (TMPRSS2 [5]; A549, SA Inhibitor in the absence of DHT stimulation, 72 hrs) was 77.6% and the TMPRSS2 protein expression (TMPRSS2 [5]; A549, SA Inhibitor with DHT stimulation (1 nM), 72 hrs) was 70.2%. The citrullinated nucleosomes ([2]; LPS trigger, 0.1 uM SA Inhibitor, LPS alone 158 ng/mL) was 126.5 ng/mL, the citrullinated nucleosomes ([2]; LPS trigger, 10 uM SA Inhibitor, LPS alone 158 ng/mL) was 66.6 ng/mL and the citrullinated nucleosomes ([2]; combined LPS and EGF, 0.1 uM SA Inhibitor, without inhibitor 208.5 ng/mL) was 111.1 ng/mL. The “effect on DHT increased NETosis” value (Neutrophils (NETosis) [6]; 20 ug/mL LPS trigger plus DHT, SA Inhibitor 1 nM-1 mM, 30 minutes preincubation) was “This increase is reversed”, the “effect on IL6 increased NETosis” value (Neutrophils (NETosis) [8]; LPS trigger plus IL6, SA Inhibitor checkerboard as Table 4) was “This increase is reversed” and the “effect on IL8 increased NETosis” value (Neutrophils (NETosis) [9]; LPS trigger plus IL8, SA Inhibitor checkerboard as Table 4) was “This increase is reversed”. The “level of NETosis” value [10] was “shown to decrease in the treated neutrophils”, the kidney function [11] was “returns to normal” and the “markers of SIRS (temperature, heart rate, breathing rate)” value [11] was “improve”. For the same compound, the “markers of SIRS (temperature, heart rate, breathing rate)” value [12] was “improve”, the “viral load as determined by PCR” value (SARS-COV-2 infection) was “lower than what would have been expected in the absence of the administration of the peptide” and the “lung function / SpO2” value (COVID-19 virus infection) was “improved lung function with a higher measured SpO2 level”. The “viral load, as measured by PCR” value (COVID-19 virus infection; after a few days) was “reduced and lower than would be expected in the absence of the peptide”, the “Chron's disease flare up outcome” value [13] was “goes back into remission” and the “H3.1 NETosis derived nucleosome levels” value ([14]; LPS in combination with EGF, without inhibitor 641.9 ng/mL, inhibitor concentration not stated) was 254.2 ng/mL. The H3.1 nucleosomes released ([14]; LPS trigger, 0.1 uM SA Inhibitor, LPS alone 523.2 ng/mL) was 339.4 ng/mL.
Compound “EGF: Epithelial Growth Factor (EGF, Sigma) (NSDSECPLSHDGYCLHDGVCMYIEALDKYACNCVVGYIGERCQYRDLKWWELR; UniProt P01133 971-1023, looked up) [reference compound]” has a TMPRSS2 relative expression (TMPRSS2 [4]; LNCaP, 100 ng/ml EGF, 72 hrs) of 62.8% and a TMPRSS2 relative expression (TMPRSS2 [5]; A549, 100 ng/ml EGF, 72 hrs) of 797%.
With “IL6: IL6 (Merck) used to activate NETosis in response to LPS [reference compound]” the “level of NETosis” value (Neutrophils (NETosis) [8]; LPS trigger, IL6 0, 10, 50 and 100 ng/mL) was “increased with increasing concentrations of IL6”.
In the case of “IL8: IL8 (Merck) used to activate NETosis in response to LPS [reference compound]”, the “level of NETosis” value (Neutrophils (NETosis) [9]; LPS trigger, IL8 0, 1, 10 and 100 nM) is reported as “increased with increasing concentrations of IL8”.
